Source: US8168651B2, “Protein kinase modulators” (Cylene Pharmaceuticals, Inc., priority 2008, dated 2012)
Blank lines part the entries; values can stand above or below the molecule they belong to.

How the values were obtained:
MV-4-11 (AML) xenograft = MV-4-11 (AML) xenograft model; cited from earlier work
MOLM-13 (AML) xenograft = MOLM-13 (AML) xenograft model; cited from earlier work
MV-4-11 = assay: Cell proliferation modulatory activity, MV-4-11; format: cell-based; conditions: Homo sapiens, MV4-11; MV-4-11 cells
K-562 [1] = assay: Cell proliferation modulatory activity, K-562; format: cell-based; conditions: Homo sapiens, K562; K-562 cells
recombinant human PIM1 = recombinant human PIM1 (Homo sapiens (Human), UniProt P11309); assay: PIM-1 kinase activity in cell-free in vitro assay; format: biochemical; conditions: cell-free assay; for inhibition at 0.5 µM: 500 nM compound, read-out: PIM-1: % inh 500 nM
Chain of recombinant human PIM1 (P11309 whole entry): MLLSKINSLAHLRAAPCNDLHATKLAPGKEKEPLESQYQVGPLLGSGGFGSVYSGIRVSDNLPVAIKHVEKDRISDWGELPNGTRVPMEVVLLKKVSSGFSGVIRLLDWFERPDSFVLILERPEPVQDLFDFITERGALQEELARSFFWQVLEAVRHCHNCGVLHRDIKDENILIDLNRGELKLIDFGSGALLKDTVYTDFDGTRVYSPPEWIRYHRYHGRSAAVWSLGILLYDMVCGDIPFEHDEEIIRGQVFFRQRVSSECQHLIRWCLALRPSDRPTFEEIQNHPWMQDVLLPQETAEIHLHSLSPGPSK

[2] = test system: HCT-116 human colorectal carcinoma cells; assay: Cell-proliferation assay using Alamar Blue dye; format: cell-based; conditions: Homo sapiens, HCT-116, second HCT-116 column (c8); read-out: HCT-116 (uM) cell proliferation modulatory activity;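 note: cells exposed to compound for about 4 days, then Alamar Blue added and dye fluorescence read after about 4 h, compared with medium-only control wells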
Jurkat = assay: Cell proliferation modulatory activity, Jurkat; format: cell-based; conditions: Homo sapiens; Jurkat cells
MiaPaca xenografts = assay: Tumor suppression in MiaPaca xenograft mice; format: in vivo, NCr nu/nu mice; conditions: IV administration
Procedure: Animals were handled under laminar-flow hoods.
Tumor volume measurements (FIG. 3A) and body weight (FIG. 3B) were recorded on days 3, 6, 8, 10, 13 and 15.
Gemzar™ administered at a dose of 80 mg/kg IP Q3D was used as a positive control.

Flt3 = Flt3 (Homo sapiens (Human), UniProt P36888); conditions: cited from earlier work
Chain of Flt3 (P36888 27-993): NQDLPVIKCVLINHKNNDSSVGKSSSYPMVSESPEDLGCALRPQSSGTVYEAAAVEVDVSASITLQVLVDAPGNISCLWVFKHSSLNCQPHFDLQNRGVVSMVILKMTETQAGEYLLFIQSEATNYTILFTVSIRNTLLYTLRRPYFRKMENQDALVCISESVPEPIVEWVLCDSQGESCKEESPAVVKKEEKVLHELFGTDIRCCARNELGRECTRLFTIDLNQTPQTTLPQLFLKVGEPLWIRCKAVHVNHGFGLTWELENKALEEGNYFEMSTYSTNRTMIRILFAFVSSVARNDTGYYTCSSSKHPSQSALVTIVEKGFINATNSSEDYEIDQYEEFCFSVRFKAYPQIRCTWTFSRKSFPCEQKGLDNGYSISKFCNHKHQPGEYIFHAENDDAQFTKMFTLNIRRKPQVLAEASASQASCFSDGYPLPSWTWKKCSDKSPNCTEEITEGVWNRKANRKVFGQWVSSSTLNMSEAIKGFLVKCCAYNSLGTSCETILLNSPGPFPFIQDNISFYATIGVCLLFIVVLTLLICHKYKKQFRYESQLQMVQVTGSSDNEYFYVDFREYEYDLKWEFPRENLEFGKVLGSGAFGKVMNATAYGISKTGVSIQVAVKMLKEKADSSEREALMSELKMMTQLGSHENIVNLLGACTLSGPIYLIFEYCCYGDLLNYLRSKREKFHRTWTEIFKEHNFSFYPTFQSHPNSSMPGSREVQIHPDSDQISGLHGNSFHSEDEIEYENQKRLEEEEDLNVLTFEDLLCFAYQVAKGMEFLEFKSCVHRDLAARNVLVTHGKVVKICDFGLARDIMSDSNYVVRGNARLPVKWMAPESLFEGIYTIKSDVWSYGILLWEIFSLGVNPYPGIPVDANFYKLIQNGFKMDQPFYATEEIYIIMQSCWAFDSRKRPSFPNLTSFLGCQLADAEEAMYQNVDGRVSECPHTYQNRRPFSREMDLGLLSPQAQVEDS

MDAMB231 = assay: Cell-proliferation assay using Alamar Blue dye; format: cell-based; conditions: Homo sapiens, MDA-MB-231
Summary of the method: (§1)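 Using 4,000-5,000 cells per well, cultures were exposed to compound for four days at 37° C., 5% CO2. Alamar Blue was then added for 4 h, and fluorescence was read at 544 nm excitation / 590 nm emission.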

MCF-7 = assay: Cell-proliferation assay using Alamar Blue dye; format: cell-based; conditions: Homo sapiens, MCF7
Summary of the method: as §1

LNCaP = assay: Cell-proliferation assay using Alamar Blue dye; format: cell-based; conditions: Homo sapiens
Summary of the method: as §1

A549 = assay: Cell-proliferation assay using Alamar Blue dye; format: cell-based; conditions: Homo sapiens
Summary of the method: as §1

K-562 [3] = assay: Cell-proliferation assay using Alamar Blue dye; format: cell-based; conditions: Homo sapiens, K562
[4] = test system: leukemic cells from AML patients; conditions: cited from earlier work

Compound: CN1CCC(CNc2ccc3ncc(-c4cccc(OC(F)(F)F)c4)n3n2)CC1 [SGI-1776]
tumor regression (MV-4-11 (AML) xenograft): significant tumor regression
tumor regression (MOLM-13 (AML) xenograft): significant tumor regression

IC50 (MV-4-11): > 10 µM
IC50 (K-562 [1]): > 10 µM
inhibition at 0.5 µM (recombinant human PIM1): 27.7%
IC50 [2]: > 10 µM
IC50 (Jurkat): 29.8 µM
Compound: O=C(O)c1ccc2c(c1)nc(Nc1ccccc1OCc1ccccc1)c1ccncc12

Compound: O=C(O)c1ccc2c(c1)nc(Nc1cccc(C(F)(F)F)c1)c1nc(NC3CC3)ncc12 [Compound A3]
tumor progression (MiaPaca xenografts): significantly inhibited tumor progression

Compound: C[C@]12O[C@H](C[C@]1(O)CO)n1c3ccccc3c3c4c(c5c6ccccc6n2c5c31)CNC4=O [CEP-701]
inhibition of Flt3 (Flt3): potent inhibitor

IC50 (MDAMB231): 7.66 µM
IC50 (MCF-7): > 50 µM
IC50 (LNCaP): 10.4 µM
IC50 (A549): > 50 µM
IC50 (K-562 [3]): 7.17 µM
Compound: O=C(O)c1ccc2c(c1)nc(NCCCc1ccccc1)c1ccncc12 [drawing 1003]

inhibition at 0.5 µM (recombinant human PIM1): 44.3%
IC50 [2]: > 10 µM
IC50 (Jurkat): 14.2 µM
Compound: O=C(O)c1ccc2c(c1)nc(Nc1ccc(OCc3ccccc3)cc1)c1ccncc12

Compound: CN(C)C[C@@H]1CCn2cc(c3ccccc32)C2=C(C(=O)NC2=O)c2cn(c3ccccc23)CCO1 [Ly5333′531]
cell growth and cell death [4]: suppressed cell growth and induced cell death

IC50 (MDAMB231): 14.2 µM
IC50 (MCF-7): 47.6 µM
IC50 (LNCaP): 13.9 µM
IC50 (A549): 32.5 µM
IC50 (K-562 [3]): 9.18 µM
Compound: O=C(O)c1ccc2c(c1)nc(NCCc1cccc(Cl)c1)c1ccncc12 [drawing 1001]

IC50 (MV-4-11): > 10 µM
IC50 (K-562 [1]): > 10 µM
inhibition at 0.5 µM (recombinant human PIM1): 88.4%
IC50 (recombinant human PIM1): 0.259 µM
IC50 [2]: > 10 µM
IC50 (Jurkat): 29.6 µM
Compound: O=C(O)c1ccc2c(c1)nc(Nc1ccc3c(c1)OCCO3)c1ccncc12
